Experimental data published in ChEMBL document CHEMBL5696441 (Nat Chem Biol, 2011).

How the values were obtained:
[1] = Anti-inflammatory activity against human derived high respond PBMC cells assessed as inhibition in stimulated IP-10 chemokine release incubated for 2 hrs in the presence of LPS/SEB/aCD28 by Luminex based sandwich immunoassay; type: functional, cell-based
[2] = target: Ephrin type-B receptor 1 (Homo sapiens) (UniProt P54762); experiment: Inhibition of human EPHB1 assessed as residual activity at 1 uM using polyEY as substrate in presence of 33P-ATP by ProQinase assay relative to control
[3] = target: Ribosomal protein S6 kinase alpha-6 (Homo sapiens) (UniProt Q9UK32); experiment: Inhibition of N-terminal kinase domain RPS6KA6 (unknown origin) assessed as remaining activity at 1 uM by Kinome scan method relative to control
[4] = target: Insulin receptor (Homo sapiens) (UniProt P06213); experiment: Inhibition of human INSR assessed as residual activity at 1 uM using poly(Ala,Glu,Lys,Tyr)6:2:5:1 as substrate in presence of 33P-ATP by ProQinase assay relative to control
[5] = target: DNA-dependent protein kinase catalytic subunit (Homo sapiens) (UniProt P78527); experiment: Inhibition of human DNPK1 assessed as residual activity at 1 uM using RBER-GSK3 as substrate in presence of 33P-ATP by ProQinase assay relative to control
[6] = target: T1, Myotonin-protein kinase (Homo sapiens) (UniProt Q09013); experiment: Inhibition of human DMPK assessed as residual activity at 1 uM using RBER-CHKtide as substrate in presence of 33P-ATP by ProQinase assay relative to control
T1 sequence (whole entry): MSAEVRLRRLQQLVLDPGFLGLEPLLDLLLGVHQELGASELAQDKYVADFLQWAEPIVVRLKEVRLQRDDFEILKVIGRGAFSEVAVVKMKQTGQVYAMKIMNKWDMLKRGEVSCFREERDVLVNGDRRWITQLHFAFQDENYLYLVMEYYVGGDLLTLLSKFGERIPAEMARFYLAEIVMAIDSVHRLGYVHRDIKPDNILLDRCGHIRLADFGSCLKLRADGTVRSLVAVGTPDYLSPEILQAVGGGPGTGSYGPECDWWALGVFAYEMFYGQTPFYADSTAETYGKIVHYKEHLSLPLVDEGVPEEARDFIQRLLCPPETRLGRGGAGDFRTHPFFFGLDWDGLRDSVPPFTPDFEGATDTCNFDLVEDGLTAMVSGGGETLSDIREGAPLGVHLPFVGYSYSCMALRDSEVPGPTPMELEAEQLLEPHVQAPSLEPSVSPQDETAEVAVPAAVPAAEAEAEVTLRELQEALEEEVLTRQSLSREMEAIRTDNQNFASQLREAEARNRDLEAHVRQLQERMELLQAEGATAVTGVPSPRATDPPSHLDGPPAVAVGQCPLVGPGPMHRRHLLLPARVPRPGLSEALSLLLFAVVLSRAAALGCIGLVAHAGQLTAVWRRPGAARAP

[7] = Anti-inflammatory activity against human derived medium respond PBMC cells assessed as inhibition in stimulated INFgamma cytokine release incubated for 2 hrs in the presence of LPS/SEB/aCD28 by Luminex based sandwich immunoassay; type: functional, cell-based
[8] = tested on: Platelet-derived growth factor receptor alpha (Homo sapiens), P16234 [T674I]; experiment: Inhibition of human PDGFRalpha T674I mutant assessed as residual activity at 1 uM using Poly(Ala,Glu,Lys,Tyr)6:2:5:1 as substrate in presence of 33P-ATP by ProQinase assay relative to control
[9] = target: Receptor tyrosine-protein kinase erbB-2 (Homo sapiens) (UniProt P04626); experiment: Inhibition of ERBB2 (unknown origin) assessed as remaining activity at 1 uM by Kinome scan method relative to control
[10] = target: T2, Serine/threonine-protein kinase PLK4 (Homo sapiens) (UniProt O00444); experiment: Inhibition of human SAK assessed as residual activity at 1 uM using p38-alpha KA as substrate in presence of 33P-ATP by ProQinase assay relative to control
T2 sequence (whole entry): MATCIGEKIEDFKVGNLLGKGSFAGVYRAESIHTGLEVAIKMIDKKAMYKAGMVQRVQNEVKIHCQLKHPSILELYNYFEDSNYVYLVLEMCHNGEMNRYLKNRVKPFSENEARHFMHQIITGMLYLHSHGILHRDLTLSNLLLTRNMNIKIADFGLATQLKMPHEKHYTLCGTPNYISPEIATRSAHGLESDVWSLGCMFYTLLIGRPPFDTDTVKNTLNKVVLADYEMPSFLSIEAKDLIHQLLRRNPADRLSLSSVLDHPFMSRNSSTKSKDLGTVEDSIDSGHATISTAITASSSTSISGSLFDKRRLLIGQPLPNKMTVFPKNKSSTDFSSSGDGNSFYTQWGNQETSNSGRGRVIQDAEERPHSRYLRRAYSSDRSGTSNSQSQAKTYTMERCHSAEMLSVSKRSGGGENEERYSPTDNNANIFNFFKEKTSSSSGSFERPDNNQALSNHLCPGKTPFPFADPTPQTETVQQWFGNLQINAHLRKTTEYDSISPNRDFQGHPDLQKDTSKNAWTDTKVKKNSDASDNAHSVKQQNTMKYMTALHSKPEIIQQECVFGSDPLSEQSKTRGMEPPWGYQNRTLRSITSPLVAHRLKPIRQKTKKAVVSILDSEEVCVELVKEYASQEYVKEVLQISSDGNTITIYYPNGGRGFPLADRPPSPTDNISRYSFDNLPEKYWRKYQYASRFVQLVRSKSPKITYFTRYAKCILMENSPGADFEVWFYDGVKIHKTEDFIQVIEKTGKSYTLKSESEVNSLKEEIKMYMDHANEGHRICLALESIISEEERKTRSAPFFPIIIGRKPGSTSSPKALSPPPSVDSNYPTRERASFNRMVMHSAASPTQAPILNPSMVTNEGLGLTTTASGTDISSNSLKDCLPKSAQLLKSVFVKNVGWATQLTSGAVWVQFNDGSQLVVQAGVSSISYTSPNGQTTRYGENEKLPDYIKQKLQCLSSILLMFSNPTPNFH

[11] = target: Serine/threonine-protein kinase N2 (Homo sapiens) (UniProt Q16513); experiment: Inhibition of human PRK2 assessed as residual activity at 1 uM using RBER-CHKtide as substrate in presence of 33P-ATP by ProQinase assay relative to control
[12] = tested on: Hepatocyte growth factor receptor (Homo sapiens), P08581 [Y1230D]; experiment: Inhibition of human MET Y1230D mutant assessed as residual activity at 1 uM using poly(Ala,Glu,Lys,Tyr)6:2:5:1 as substrate in presence of 33P-ATP by ProQinase assay relative to control
[13] = target: Angiopoietin-1 receptor (Homo sapiens) (UniProt Q02763); experiment: Inhibition of TIE2 (unknown origin) assessed as remaining activity at 1 uM by Kinome scan method relative to control
[14] = target: Casein kinase I isoform alpha (Homo sapiens) (UniProt P48729); experiment: Inhibition of human CK1alpha1 assessed as residual activity at 1 uM using casein as substrate in presence of 33P-ATP by ProQinase assay relative to control
Casein kinase I isoform alpha (Homo sapiens), sequence (P48729 2-337 limits assumed): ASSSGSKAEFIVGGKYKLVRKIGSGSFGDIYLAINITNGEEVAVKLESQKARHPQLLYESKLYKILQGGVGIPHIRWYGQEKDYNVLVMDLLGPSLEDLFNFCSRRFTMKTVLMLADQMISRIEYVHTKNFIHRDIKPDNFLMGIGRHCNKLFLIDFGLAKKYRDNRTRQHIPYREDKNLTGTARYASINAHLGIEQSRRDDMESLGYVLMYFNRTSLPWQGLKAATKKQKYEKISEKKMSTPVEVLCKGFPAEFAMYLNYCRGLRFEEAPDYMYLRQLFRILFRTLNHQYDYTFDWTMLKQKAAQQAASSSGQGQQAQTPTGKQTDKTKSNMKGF

Platelet-derived growth factor receptor alpha (Homo sapiens), P16234 [T674I], sequence (P16234 whole entry T674I): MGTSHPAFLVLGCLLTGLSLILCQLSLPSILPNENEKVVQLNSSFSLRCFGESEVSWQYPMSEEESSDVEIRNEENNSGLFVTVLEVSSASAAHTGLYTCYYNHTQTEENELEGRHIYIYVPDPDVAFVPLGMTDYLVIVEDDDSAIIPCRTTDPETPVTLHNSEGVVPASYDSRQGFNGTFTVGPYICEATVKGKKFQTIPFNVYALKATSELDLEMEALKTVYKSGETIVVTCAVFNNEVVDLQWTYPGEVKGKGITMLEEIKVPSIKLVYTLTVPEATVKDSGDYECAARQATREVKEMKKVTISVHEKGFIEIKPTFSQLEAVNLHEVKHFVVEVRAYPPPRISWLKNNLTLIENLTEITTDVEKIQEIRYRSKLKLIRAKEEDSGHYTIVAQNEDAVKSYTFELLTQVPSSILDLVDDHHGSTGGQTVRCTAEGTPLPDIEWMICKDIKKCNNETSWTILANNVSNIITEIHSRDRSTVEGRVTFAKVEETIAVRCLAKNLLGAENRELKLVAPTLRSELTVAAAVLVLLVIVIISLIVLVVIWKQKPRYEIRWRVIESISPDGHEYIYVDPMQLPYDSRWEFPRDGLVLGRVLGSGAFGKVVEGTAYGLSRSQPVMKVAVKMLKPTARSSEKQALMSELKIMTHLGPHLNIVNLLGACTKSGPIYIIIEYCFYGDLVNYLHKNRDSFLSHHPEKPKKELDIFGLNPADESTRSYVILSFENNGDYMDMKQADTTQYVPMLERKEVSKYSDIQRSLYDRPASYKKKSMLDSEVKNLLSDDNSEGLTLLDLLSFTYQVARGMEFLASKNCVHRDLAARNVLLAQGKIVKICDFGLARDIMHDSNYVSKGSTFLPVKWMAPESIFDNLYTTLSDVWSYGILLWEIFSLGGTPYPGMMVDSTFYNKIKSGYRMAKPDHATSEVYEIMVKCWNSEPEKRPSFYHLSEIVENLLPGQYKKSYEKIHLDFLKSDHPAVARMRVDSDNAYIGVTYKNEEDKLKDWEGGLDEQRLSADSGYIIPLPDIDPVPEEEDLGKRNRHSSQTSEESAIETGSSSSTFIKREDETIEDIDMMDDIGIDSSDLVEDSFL
Ribosomal protein S6 kinase alpha-6 (Homo sapiens), sequence (Q9UK32 whole entry, the tested form may be a part): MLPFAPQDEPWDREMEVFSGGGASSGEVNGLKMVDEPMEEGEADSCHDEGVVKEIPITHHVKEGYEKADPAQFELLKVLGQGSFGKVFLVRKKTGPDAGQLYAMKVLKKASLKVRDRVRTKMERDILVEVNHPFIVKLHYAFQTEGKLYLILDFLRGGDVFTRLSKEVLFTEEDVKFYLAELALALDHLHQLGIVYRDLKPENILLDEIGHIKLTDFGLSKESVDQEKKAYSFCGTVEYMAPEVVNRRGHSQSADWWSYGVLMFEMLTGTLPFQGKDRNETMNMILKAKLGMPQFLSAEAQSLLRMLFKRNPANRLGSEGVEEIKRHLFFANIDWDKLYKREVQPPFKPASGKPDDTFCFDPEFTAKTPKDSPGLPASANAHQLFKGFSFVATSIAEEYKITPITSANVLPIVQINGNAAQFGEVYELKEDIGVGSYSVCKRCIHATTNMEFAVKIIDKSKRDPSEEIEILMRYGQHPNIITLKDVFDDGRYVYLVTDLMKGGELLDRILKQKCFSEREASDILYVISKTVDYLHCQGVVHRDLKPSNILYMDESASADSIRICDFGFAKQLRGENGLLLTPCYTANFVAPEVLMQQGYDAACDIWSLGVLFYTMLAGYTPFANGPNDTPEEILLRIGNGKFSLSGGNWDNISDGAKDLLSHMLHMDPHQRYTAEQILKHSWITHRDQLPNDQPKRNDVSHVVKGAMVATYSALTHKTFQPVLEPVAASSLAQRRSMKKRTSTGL
Angiopoietin-1 receptor (Homo sapiens), sequence (Q02763 whole entry, canonical isoform): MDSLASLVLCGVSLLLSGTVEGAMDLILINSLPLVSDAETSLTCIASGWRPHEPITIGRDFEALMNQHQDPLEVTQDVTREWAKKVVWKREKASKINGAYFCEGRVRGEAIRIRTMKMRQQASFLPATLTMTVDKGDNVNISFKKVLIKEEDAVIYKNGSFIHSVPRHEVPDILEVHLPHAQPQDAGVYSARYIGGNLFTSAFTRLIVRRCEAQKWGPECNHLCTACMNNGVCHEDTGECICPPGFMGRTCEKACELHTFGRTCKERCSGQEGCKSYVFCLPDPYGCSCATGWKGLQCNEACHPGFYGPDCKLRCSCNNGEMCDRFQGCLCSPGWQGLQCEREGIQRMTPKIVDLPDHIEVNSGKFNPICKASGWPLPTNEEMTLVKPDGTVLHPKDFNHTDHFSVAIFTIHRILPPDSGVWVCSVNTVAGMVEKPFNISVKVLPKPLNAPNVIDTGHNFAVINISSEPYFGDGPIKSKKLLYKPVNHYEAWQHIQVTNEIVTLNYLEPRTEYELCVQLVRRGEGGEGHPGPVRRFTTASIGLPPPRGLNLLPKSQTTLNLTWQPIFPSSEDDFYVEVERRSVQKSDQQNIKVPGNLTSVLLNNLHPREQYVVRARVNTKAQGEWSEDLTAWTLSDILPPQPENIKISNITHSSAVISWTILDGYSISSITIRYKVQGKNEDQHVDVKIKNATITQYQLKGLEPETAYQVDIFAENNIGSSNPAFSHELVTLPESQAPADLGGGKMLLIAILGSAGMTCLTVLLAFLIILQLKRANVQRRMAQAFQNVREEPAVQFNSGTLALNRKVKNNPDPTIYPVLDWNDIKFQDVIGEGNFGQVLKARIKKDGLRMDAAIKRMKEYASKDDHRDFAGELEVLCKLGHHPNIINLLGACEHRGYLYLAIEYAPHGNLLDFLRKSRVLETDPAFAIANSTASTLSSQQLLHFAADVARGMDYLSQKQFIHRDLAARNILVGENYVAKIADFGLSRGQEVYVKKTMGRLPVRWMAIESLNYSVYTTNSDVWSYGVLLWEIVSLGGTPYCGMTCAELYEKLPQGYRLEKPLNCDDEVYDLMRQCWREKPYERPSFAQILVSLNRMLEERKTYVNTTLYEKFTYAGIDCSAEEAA
Ephrin type-B receptor 1 (Homo sapiens), sequence (P54762 whole entry, the tested form may be a part): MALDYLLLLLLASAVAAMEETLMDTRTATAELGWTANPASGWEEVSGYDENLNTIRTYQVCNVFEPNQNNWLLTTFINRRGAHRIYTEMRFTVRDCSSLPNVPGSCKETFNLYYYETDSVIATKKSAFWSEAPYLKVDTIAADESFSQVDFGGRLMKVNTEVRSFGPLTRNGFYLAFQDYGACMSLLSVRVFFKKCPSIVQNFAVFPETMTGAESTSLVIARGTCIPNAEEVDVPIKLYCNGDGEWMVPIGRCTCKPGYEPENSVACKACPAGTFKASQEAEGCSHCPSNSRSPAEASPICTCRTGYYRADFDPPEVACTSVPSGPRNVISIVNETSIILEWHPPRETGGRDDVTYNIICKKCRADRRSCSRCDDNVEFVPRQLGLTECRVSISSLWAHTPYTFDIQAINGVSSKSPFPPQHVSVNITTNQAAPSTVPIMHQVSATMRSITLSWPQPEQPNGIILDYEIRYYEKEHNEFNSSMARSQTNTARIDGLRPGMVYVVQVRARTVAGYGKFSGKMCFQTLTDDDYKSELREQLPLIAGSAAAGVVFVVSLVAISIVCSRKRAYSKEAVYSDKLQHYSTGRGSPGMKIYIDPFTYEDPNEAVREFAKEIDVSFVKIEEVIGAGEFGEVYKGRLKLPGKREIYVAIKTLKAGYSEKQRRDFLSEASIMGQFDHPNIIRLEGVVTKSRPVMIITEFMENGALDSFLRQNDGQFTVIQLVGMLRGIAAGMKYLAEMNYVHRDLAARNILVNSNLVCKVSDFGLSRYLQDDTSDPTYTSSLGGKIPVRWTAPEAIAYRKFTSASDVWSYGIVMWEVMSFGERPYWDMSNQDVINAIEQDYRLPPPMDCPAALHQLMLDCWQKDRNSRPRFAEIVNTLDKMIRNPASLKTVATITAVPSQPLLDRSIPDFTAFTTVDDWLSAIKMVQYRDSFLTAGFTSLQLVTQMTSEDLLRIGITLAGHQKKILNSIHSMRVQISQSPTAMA

## O=C1c2ccc(Nc3ccc(F)cc3F)cc2CCc2ccc(OC[C@H](O)CO)cc21 [Skepinone-L]
[1]
  IC50: Not Active
[2]
  Activity: 116%
[3]
  Activity: 90%
[4]
  Activity: 101%
[5]
  Activity: 82%
[6]
  Activity: 99%
[7]
  IC50: 300 nM
[8]
  Activity: 97%
[9]
  Activity: 100%
[10]
  Activity: 62%
[11]
  Activity: 95%
[12]
  Activity: 95%
[13]
  Activity: 100%
[14]
  Activity: 97%
